In patent publication US6514999B1, “Use of an agent for treating the symptoms of Parkinson's disease” (priority 1998, dated 2003):

System: symptoms of Parkinson's disease
Assay: Application to parkinsonian patients for treating the symptoms of Parkinson's disease
Format: in vivo, human (parkinsonian patients)
Conditions: compared within the anilide group of local anesthetics (lidocaine, bupivacaine, butanilicaine, etidocaine, tolycaine)
From the text: The inventive use has the effect, upon application to parkinsonian patients, that the specific symptoms of Parkinson's disease clearly subside, the resulting improved condition of the patient continuing for several hours and even days. In particular, a clear improvement of disease-specific symptoms was obtained with the inventive use […] “local anesthetic of the anilide group” essential to the inventive use belongs in general to the local anesthetics of different structure, the local anesthetics of the anilide group and their derivatives being preferred for treatment as a subgroup of said local anesthetics. Examples of said subgroup are not only mepivacaine but also lidocaine, bupivacaine, butanilicaine, etidocaine and tolycaine. […] One supposition is that the small molecular size of mepivacaine provides an increased probability of crossing the blood-brain barrier. Mepivacaine is in addition lipophilic, i.e. lipid-loving, and tends to attach to fat molecules. It is remarkable in this connection that neurons are usually embedded in fat and an accumulation or concentration of mepivacaine in fat will presumably also have effects on the nervous pathways running through fatty tissue. Levodopa also has strong lipophilia, like mepivacaine, so that this connection might also provide a mechanism of action. […]

Cc1cccc(C)c1NC(=O)C1CCCCN1C (stereo not shown) [mepivacaine]
effectiveness in treating patients with Parkinson's disease: most effective
